Reference: publication PMC5218480 (PLoS ONE, 2017)

System: MV-4-11 cells
Assay: Gene expression microarray analysis (Affymetrix PrimeView) and GSEA
Type: cell-based, human
Design: RFU PODN (11730768_x_at) / Fold change /veh PODN (11730768_x_at) / RFU LINC00158 (11744669_a_at) / Fold change /veh LINC00158 (11744669_a_at) / RFU DUSP10 (11751237_a_at) / Fold change /veh DUSP10 (11751237_a_at) / RFU ID3 (11757404_x_at) / Fold change /veh ID3 (11757404_x_at) / RFU PLEKHG5 (11737974_s_at) / Fold change /veh PLEKHG5 (11737974_s_at) / RFU LRRC4B (11730491_at) / Fold change /veh LRRC4B (11730491_at) / RFU GIMAP4 (11747438_a_at) / Fold change /veh GIMAP4 (11747438_a_at) / RFU KRT8 (11758183_x_at) / Fold change /veh KRT8 (11758183_x_at) / RFU CNN1 (11734310_a_at) / Fold change /veh CNN1 (11734310_a_at) / RFU VPS37D (11726825_at) / Fold change /veh VPS37D (11726825_at) / RFU C10orf10 (11716522_x_at) / Fold change /veh C10orf10 (11716522_x_at) / RFU KIR2DL2 /// KIR2DL4 /// KIR2DL5A /// KIR2DL5B /// KIR2DS1 /// KIR2DS2 /// KIR2DS3 /// KIR2DS4 /// KIR3DL3 /// KIR3DL3 /// KIR3DS1 (11738374_at) / Fold change /veh KIR2DL2 /// KIR2DL4 /// KIR2DL5A /// KIR2DL5B /// KIR2DS1 /// KIR2DS2 /// KIR2DS3 /// KIR2DS4 /// KIR3DL3 /// KIR3DL3 /// KIR3DS1 (11738374_at) / RFU C1QL1 (11718748_at) / Fold change /veh C1QL1 (11718748_at) / RFU TMPRSS4 (11747572_a_at) / Fold change /veh TMPRSS4 (11747572_a_at) / RFU HAMP (11756126_x_at) / Fold change /veh HAMP (11756126_x_at) / RFU RNFT2 (11725882_a_at) / Fold change /veh RNFT2 (11725882_a_at) / RFU NR4A2 (11747474_a_at) / Fold change /veh NR4A2 (11747474_a_at) / RFU ABCC12 (11746883_a_at) / Fold change /veh ABCC12 (11746883_a_at) / RFU TMEM136 (11760407_x_at) / Fold change /veh TMEM136 (11760407_x_at) / RFU CLDN22 /// WWC2 (11732394_at) / Fold change /veh CLDN22 /// WWC2 (11732394_at) / RFU HLA-DPB1 (11760878_x_at) / Fold change /veh HLA-DPB1 (11760878_x_at) / RFU SPINT1 (11716480_a_at) / Fold change /veh SPINT1 (11716480_a_at) / RFU GAP43 (11754022_s_at) / Fold change /veh GAP43 (11754022_s_at) / RFU A4GNT (11735810_at) / Fold change /veh A4GNT (11735810_at) / RFU PRB3 (11715151_x_at) / Fold change /veh PRB3 (11715151_x_at) / RFU TUBB4B (11761932_at) / Fold change /veh TUBB4B (11761932_at) / RFU CAPN14 (11732068_a_at) / Fold change /veh CAPN14 (11732068_a_at) / RFU TMCC2 (11721928_a_at) / Fold change /veh TMCC2 (11721928_a_at) / RFU IRGQ (11745062_a_at) / Fold change /veh IRGQ (11745062_a_at) / RFU FAM174B (11720279_a_at) / Fold change /veh FAM174B (11720279_a_at) / RFU TMPRSS4 (11748680_a_at) / Fold change /veh TMPRSS4 (11748680_a_at) / RFU FAM212B (11763350_a_at) / Fold change /veh FAM212B (11763350_a_at) / RFU PLEKHG5 (11743358_a_at) / Fold change /veh PLEKHG5 (11743358_a_at) / RFU ZSCAN30 (11745921_a_at) / Fold change /veh ZSCAN30 (11745921_a_at) / RFU CMKLR1 (11741424_a_at) / Fold change /veh CMKLR1 (11741424_a_at) / RFU LOC101060620 /// MAPK8IP1 (11723275_at) / Fold change /veh LOC101060620 /// MAPK8IP1 (11723275_at) / RFU SPTSSB (11747773_x_at) / Fold change /veh SPTSSB (11747773_x_at) / RFU PRSS12 (11739890_at) / Fold change /veh PRSS12 (11739890_at) / RFU BIN1 (11741810_x_at) / Fold change /veh BIN1 (11741810_x_at) / RFU WNT11 (11732464_a_at) / Fold change /veh WNT11 (11732464_a_at) / RFU C10orf10 (11716521_a_at) / Fold change /veh C10orf10 (11716521_a_at) / RFU C5orf56 (11738089_at) / Fold change /veh C5orf56 (11738089_at) / RFU CYB561 (11721691_x_at) / Fold change /veh CYB561 (11721691_x_at) / RFU ANKRD19P (11752326_a_at) / Fold change /veh ANKRD19P (11752326_a_at) / RFU OR2T12 /// OR2T33 /// OR2T8 (11738714_s_at) / Fold change /veh OR2T12 /// OR2T33 /// OR2T8 (11738714_s_at) / RFU VCAN (11748164_a_at) / Fold change /veh VCAN (11748164_a_at) / RFU JSRP1 (11732532_at) / Fold change /veh JSRP1 (11732532_at) / RFU KRTAP10-11 (11738290_x_at) / Fold change /veh KRTAP10-11 (11738290_x_at) / RFU MYO3A (11730013_a_at) / Fold change /veh MYO3A (11730013_a_at) / RFU EBF3 (11725865_a_at) / Fold change /veh EBF3 (11725865_a_at) / RFU CAMK2N1 (11719241_x_at) / Fold change /veh CAMK2N1 (11719241_x_at) / RFU C5orf56 (11738088_a_at) / Fold change /veh C5orf56 (11738088_a_at) / RFU OLFML3 (11715873_a_at) / Fold change /veh OLFML3 (11715873_a_at) / RFU LOC100653217 /// NTM (11731650_a_at) / Fold change /veh LOC100653217 /// NTM (11731650_a_at) / RFU MAPK11 (11762145_a_at) / Fold change /veh MAPK11 (11762145_a_at) / RFU FIZ1 (11724087_x_at) / Fold change /veh FIZ1 (11724087_x_at) / RFU OASL (11726364_x_at) / Fold change /veh OASL (11726364_x_at) / RFU SOX15 (11748057_x_at) / Fold change /veh SOX15 (11748057_x_at) / RFU CD79A (11719716_a_at) / Fold change /veh CD79A (11719716_a_at) / RFU HIST1H1D (11736915_at) / Fold change /veh HIST1H1D (11736915_at) / RFU CASKIN2 (11723855_a_at) / Fold change /veh CASKIN2 (11723855_a_at) / RFU LOC730098 (11760151_x_at) / Fold change /veh LOC730098 (11760151_x_at) / RFU OR4N2 (11742367_at) / Fold change /veh OR4N2 (11742367_at) / RFU PRRT2 (11749266_a_at) / Fold change /veh PRRT2 (11749266_a_at) / RFU SNX32 (11753110_a_at) / Fold change /veh SNX32 (11753110_a_at) / RFU CDHR5 (11726645_a_at) / Fold change /veh CDHR5 (11726645_a_at) / RFU RCAN1 (11760418_a_at) / Fold change /veh RCAN1 (11760418_a_at) / RFU FAM167A (11723789_a_at) / Fold change /veh FAM167A (11723789_a_at) / RFU FAM26E (11764081_at) / Fold change /veh FAM26E (11764081_at) / RFU ISYNA1 (11749810_s_at) / Fold change /veh ISYNA1 (11749810_s_at) / RFU ACY1 (11761880_at) / Fold change /veh ACY1 (11761880_at) / RFU 11764098_at / Fold change /veh 11764098_at / RFU SAMD14 (11745864_x_at) / Fold change /veh SAMD14 (11745864_x_at) / RFU NPB (11741838_a_at) / Fold change /veh NPB (11741838_a_at) / RFU TMPRSS6 (11731388_a_at) / Fold change /veh TMPRSS6 (11731388_a_at) / RFU KRTAP10-2 (11738614_at) / Fold change /veh KRTAP10-2 (11738614_at) / RFU ARHGAP8 /// PRR5-ARHGAP8 (11727945_x_at) / Fold change /veh ARHGAP8 /// PRR5-ARHGAP8 (11727945_x_at) / RFU KRTAP5-7 /// NADSYN1 (11734609_at) / Fold change /veh KRTAP5-7 /// NADSYN1 (11734609_at) / RFU RASL12 (11751679_a_at) / Fold change /veh RASL12 (11751679_a_at) / RFU CDKN2B (11736163_a_at) / Fold change /veh CDKN2B (11736163_a_at) / RFU PRF1 (11729649_at) / Fold change /veh PRF1 (11729649_at) / RFU, ZNF638 /// ZNF638-IT1 / Fold change vs veh, ZNF638 /// ZNF638-IT1 / RFU, PANK3 / Fold change vs veh, PANK3 / RFU, SH3YL1 / Fold change vs veh, SH3YL1 / RFU, ZEB2 / Fold change vs veh, ZEB2 / RFU, NRIP1 / Fold change vs veh, NRIP1 / RFU, PTTG1IP / Fold change vs veh, PTTG1IP / RFU, CAPN2 / Fold change vs veh, CAPN2 / RFU, MED14 / Fold change vs veh, MED14 / RFU, SNORA58 / Fold change vs veh, SNORA58 / RFU, C1orf63 / Fold change vs veh, C1orf63 / RFU, LRRFIP1 / Fold change vs veh, LRRFIP1 / RFU, NDUFAF7 / Fold change vs veh, NDUFAF7 / RFU, SLC12A2 / Fold change vs veh, SLC12A2 / RFU, IBTK / Fold change vs veh, IBTK / RFU, ESF1 / Fold change vs veh, ESF1 / Fold change vs veh, TMEM50B / RFU, TAOK1 / Fold change vs veh, TAOK1 / RFU, ACBD3 / Fold change vs veh, ACBD3 / RFU, TMA16 / Fold change vs veh, TMA16 / RFU, RWDD3 / Fold change vs veh, RWDD3 / RFU, BCAT1 / Fold change vs veh, BCAT1 / RFU, EDEM3 / Fold change vs veh, EDEM3 / RFU, TMEM33 / Fold change vs veh, TMEM33 / RFU, WDR75 / Fold change vs veh, WDR75 / RFU, AHCTF1 / Fold change vs veh, AHCTF1 / RFU, TFRC / Fold change vs veh, TFRC / RFU, ZDHHC17 / Fold change vs veh, ZDHHC17 / RFU, NOM1 / Fold change vs veh, NOM1 / RFU, ARL8B / Fold change vs veh, ARL8B / RFU, ZBTB11 / Fold change vs veh, ZBTB11 / RFU, TAMM41 / Fold change vs veh, TAMM41 / RFU, KIAA1704 /// LOC100996395 / Fold change vs veh, KIAA1704 /// LOC100996395 / RFU, ING1 / Fold change vs veh, ING1 / RFU, TRMT61B / Fold change vs veh, TRMT61B / RFU, FUBP3 / Fold change vs veh, FUBP3 / RFU, TP53 / Fold change vs veh, TP53 / RFU, TNKS2 / Fold change vs veh, TNKS2 / RFU, ZFP14 / Fold change vs veh, ZFP14 / RFU, ACTR2 / Fold change vs veh, ACTR2 / RFU, PPP3R1 / Fold change vs veh, PPP3R1 / RFU, PIK3R1 / Fold change vs veh, PIK3R1 / RFU, HNRNPA1 / Fold change vs veh, HNRNPA1 / RFU, RNF170 / Fold change vs veh, RNF170 / RFU, ZNF28 / Fold change vs veh, ZNF28 / RFU, RNGTT / Fold change vs veh, RNGTT / RFU, OGT / Fold change vs veh, OGT / RFU, BRD1 / Fold change vs veh, BRD1 / RFU, MARS / Fold change vs veh, MARS / RFU, ZNF655 / Fold change vs veh, ZNF655 / RFU, FAHD1 / Fold change vs veh, FAHD1 / RFU, BDP1 / Fold change vs veh, BDP1 / RFU, LRRCC1 / Fold change vs veh, LRRCC1 / RFU, ARID1A / Fold change vs veh, ARID1A / RFU, ZNF146 / Fold change vs veh, ZNF146 / RFU, ZNF330 / Fold change vs veh, ZNF330 / RFU, GPN3 / Fold change vs veh, GPN3 / RFU, C9orf123 / Fold change vs veh, C9orf123 / RFU, N4BP2L2 / Fold change vs veh, N4BP2L2 / RFU, ARFIP1 / Fold change vs veh, ARFIP1 / RFU, FAM179B / Fold change vs veh, FAM179B / RFU, BCL10 / Fold change vs veh, BCL10 / RFU, UHRF1BP1L / Fold change vs veh, UHRF1BP1L / RFU, BET1 / Fold change vs veh, BET1 / RFU, CNOT2 / Fold change vs veh, CNOT2 / RFU, ZNF268 / Fold change vs veh, ZNF268 / Fold change vs veh, ZNF507 / RFU, DGCR2 / Fold change vs veh, DGCR2 / RFU, WDSUB1 / Fold change vs veh, WDSUB1 / Fold change vs veh, HSP90B1 /// MIR3652 / RFU, ADSS / Fold change vs veh, ADSS / RFU, GK / Fold change vs veh, GK / RFU, ZNF148 / Fold change vs veh, ZNF148 / RFU, TAF9 / Fold change vs veh, TAF9 / RFU, SLC1A5 / Fold change vs veh, SLC1A5 / RFU, SLMO2 / Fold change vs veh, SLMO2 / RFU, ABCC4 / Fold change vs veh, ABCC4 / RFU, LOC101060439 /// RAP1B / Fold change vs veh, LOC101060439 /// RAP1B / RFU, RFX7 / Fold change vs veh, RFX7 / RFU, GTPBP10 / Fold change vs veh, GTPBP10 / RFU, CNEP1R1 / Fold change vs veh, CNEP1R1 / RFU, BIVM-ERCC5 /// ERCC5 / Fold change vs veh, BIVM-ERCC5 /// ERCC5 / RFU, ILF3 / Fold change vs veh, ILF3 / RFU 11762660_at / Fold change /veh 11762660_at / RFU VCAN (11757783_s_at) / Fold change /veh VCAN (11757783_s_at) / RFU DDX43 (11728927_at) / Fold change /veh DDX43 (11728927_at) / RFU KRT8 (11758188_x_at) / Fold change /veh KRT8 (11758188_x_at) / RFU NKD1 (11759106_at) / Fold change /veh NKD1 (11759106_at) / RFU SRD5A1 (11742802_a_at) / Fold change /veh SRD5A1 (11742802_a_at) / RFU TPSAB1 /// TPSB2 (11721975_s_at) / Fold change /veh TPSAB1 /// TPSB2 (11721975_s_at) / RFU GSTM3 (11746129_a_at) / Fold change /veh GSTM3 (11746129_a_at) / RFU IL23R (11737362_x_at) / Fold change /veh IL23R (11737362_x_at) / RFU TMEM51 (11727254_a_at) / Fold change /veh TMEM51 (11727254_a_at) / RFU PIWIL2 (11732686_x_at) / Fold change /veh PIWIL2 (11732686_x_at) / RFU ORM1 (11744905_x_at) / Fold change /veh ORM1 (11744905_x_at) / RFU CCDC152 (11743942_at) / Fold change /veh CCDC152 (11743942_at) / RFU ECM1 (11717891_a_at) / Fold change /veh ECM1 (11717891_a_at) / RFU IL23R (11748794_a_at) / Fold change /veh IL23R (11748794_a_at) / RFU TNFAIP8L3 (11732012_x_at) / Fold change /veh TNFAIP8L3 (11732012_x_at) / RFU MBOAT4 (11741988_at) / Fold change /veh MBOAT4 (11741988_at) / RFU 11764193_at / Fold change /veh 11764193_at / RFU TMEM53 (11763286_at) / Fold change /veh TMEM53 (11763286_at) / RFU MAGEB2 (11727129_at) / Fold change /veh MAGEB2 (11727129_at) / RFU TMEM200A (11744735_a_at) / Fold change /veh TMEM200A (11744735_a_at) / RFU CCDC152 (11751479_a_at) / Fold change /veh CCDC152 (11751479_a_at) / RFU FAM211A (11726209_a_at) / Fold change /veh FAM211A (11726209_a_at) / RFU RGS16 (11746705_a_at) / Fold change /veh RGS16 (11746705_a_at) / RFU VCAN (11755009_s_at) / Fold change /veh VCAN (11755009_s_at) / RFU RHOB (11743442_s_at) / Fold change /veh RHOB (11743442_s_at) / RFU RGS16 (11720943_a_at) / Fold change /veh RGS16 (11720943_a_at) / RFU RGS16 (11720944_at) / Fold change /veh RGS16 (11720944_at) / RFU, VPS4B / Fold change vs veh, VPS4B / RFU, CREB1 / Fold change vs veh, CREB1 / RFU, DNAJC13 / Fold change vs veh, DNAJC13 / RFU, GNAQ / Fold change vs veh, GNAQ / RFU, CDK5R1 / Fold change vs veh, CDK5R1 / RFU, ZRANB3 / Fold change vs veh, ZRANB3 / RFU, CUL4A / Fold change vs veh, CUL4A / RFU, CCNY / Fold change vs veh, CCNY / RFU, UFL1 / Fold change vs veh, UFL1 / RFU, COG3 / Fold change vs veh, COG3 / RFU, DIAPH2 / Fold change vs veh, DIAPH2 / RFU, SKA2 / Fold change vs veh, SKA2 / RFU, AFF3 / Fold change vs veh, AFF3 / RFU, LMF1 / Fold change vs veh, LMF1 / RFU, IPO11 / Fold change vs veh, IPO11 / RFU, DFFB / Fold change vs veh, DFFB / RFU, FOXP1 / Fold change vs veh, FOXP1 / RFU, CARD8 / Fold change vs veh, CARD8 / RFU, STRN3 / Fold change vs veh, STRN3 / RFU, ADK / Fold change vs veh, ADK / RFU, RASSF2 / Fold change vs veh, RASSF2 / RFU, WIPF1 / Fold change vs veh, WIPF1 / RFU, LARP1B / Fold change vs veh, LARP1B / RFU, RASA1 / Fold change vs veh, RASA1 / RFU, RB1 / Fold change vs veh, RB1 / RFU, PPFIA1 / Fold change vs veh, PPFIA1 / RFU, MAT2A / Fold change vs veh, MAT2A / RFU, CCT5 / Fold change vs veh, CCT5 / RFU, WDR92 / Fold change vs veh, WDR92 / RFU, CUX1 / Fold change vs veh, CUX1 / RFU, TTC7A / Fold change vs veh, TTC7A / RFU, TMEM135 / Fold change vs veh, TMEM135 / RFU, DEPTOR / Fold change vs veh, DEPTOR / RFU, CPM / Fold change vs veh, CPM / RFU, DNAJB6 / Fold change vs veh, DNAJB6 / RFU, CACNA2D3 / Fold change vs veh, CACNA2D3 / RFU, DTX4 / Fold change vs veh, DTX4 / RFU, TFCP2 / Fold change vs veh, TFCP2 / RFU, GMCL1 /// GMCL1P1 / Fold change vs veh, GMCL1 /// GMCL1P1 / RFU, AEBP2 / Fold change vs veh, AEBP2 / RFU, SNHG1 /// SNORD22 /// SNORD25 /// SNORD26 /// SNORD27 /// SNORD28 /// SNORD29 /// SNORD31 / Fold change vs veh, SNHG1 /// SNORD22 /// SNORD25 /// SNORD26 /// SNORD27 /// SNORD28 /// SNORD29 /// SNORD31 / Fold change (Aza/veh), C12orf56 (ProbeSet 11735607_a_at) / Fold change (ACY-1035/veh), C12orf56 (ProbeSet 11735607_a_at) / Fold change (Aza/veh), FGFR1OP (ProbeSet 11751329_s_at) / Fold change (ACY-1035/veh), FGFR1OP (ProbeSet 11751329_s_at) / Fold change (Aza/veh), VPS36 (ProbeSet 11739960_a_at) / Fold change (ACY-1035/veh), VPS36 (ProbeSet 11739960_a_at) / RFU SYPL1 (11715823_x_at) / Fold change /veh SYPL1 (11715823_x_at) / RFU IGFBP7 (11715501_s_at) / Fold change /veh IGFBP7 (11715501_s_at) / RFU REEP3 (11722064_at) / Fold change /veh REEP3 (11722064_at) / RFU IGLL1 (11728026_x_at) / Fold change /veh IGLL1 (11728026_x_at): dose or concentration left out as unconfirmed
Conditions: ProbeSet 11720270_a_at; LIST B

Nc1ncn([C@@H]2O[C@H](CO)[C@@H](O)[C@H]2O)c(=O)n1 [azacitidine]
RFU, IBTK: 397.77 RFU
